Read-outs that look alike come from different tables or passages of the source. Blank lines part the entries; values can stand above or below the compound they belong to.
How the values were obtained:
[1] = system: flushing following niacin dosing; experiment: Example 1 clinical study: anti-flushing effect of aspirin regimen on immediate release niacin; assay type: in vivo, healthy volunteers; details: 243 mg aspirin per day for four days plus 20 mg/hr from 6 h before to 5 h after immediate release niacin; vs placebo
From the text: Provided is the clinical study to establish an anti-flushing effect of aspirin regimen on immediate release niacin. The primary endpoints for this study were treatment group comparisons of: • incidence, duration and severity of flushing following niacin dosing; • routine monitoring adverse events. Subjects have screening procedures performed up to 4 weeks prior to the first dosing visit. All qualified subjects received two single doses of niacin one week apart. Subjects were randomized to receive either an aspirin regimen or a placebo regimen prior to their niacin dose on day 1 and the opposite regimen prior to their niacin dose on day 8. At randomization, subjects received blinded study medication to be taken in the morning and evening of days −4, −3, −2 and −1. Subjects checked into the clinic on day −1 and remained housed for approximately 24 hours after niacin dosing on day 1. Prior to leaving the clinic, they received blinded study medication to be taken on the morning and evening of days 4, 5, 6, and 7. Subjects returned to the clinic on day 7 and remained housed for approximately 24 hours after niacin dosing on day 8. […] Episodes of flushing (including burning, itching, crawling sensation, pain and/or reddening of the skin, fever-like sensation) were recorded with start and end time and maximum severity captured. […]

[2] = system: flushing associated with single-dose administration of extended-release niacin (Niaspan); experiment: Example 2 three-way cross-over study: anti-flushing effects of two aspirin regimens versus placebo on extended release niacin; assay type: in vivo, healthy volunteers; details: for subjects who experienced a flushing response: 2 g extended-release niacin; for subjects who experienced a flushing response / total number of flushing episodes: 46 subjects; for maximum severity of flushing, mean / maximum severity of flushing, median: 100 mm VAS; for total cumulative duration of flushing, mean / total cumulative duration of flushing, median: start of first episode to end of last
From the text: To assess the ability of two aspirin regimens to decrease flushing associated with single-dose administration of extended-release niacin (Niaspan®). […] Study subjects remained housed overnight at the clinical research center following niacin dosing to carefully monitor for flushing reactions and other adverse events. Each subject received all three dosing regimens in a randomized, three-way cross-over fashion. Subjects have screening procedures performed up to 4 weeks prior to Period 1 Day (the first dosing visit), including assessment of flushing response to a 500 mg immediate release niacin (Niacor®) challenge. All qualified subjects received three single doses of extended-release niacin at least one week apart during three treatment periods. Subjects were randomized to receive one of the two aspirin regimens or placebo prior to their niacin dose on Day 1 of each treatment period. At randomization, subjects received blinded study medication to be taken in the evening of days -3 and -2. For each treatment period, subjects checked into the clinic on Day -1 and remained housed for at least 18 hours after niacin dosing on Day 1. Prior to leaving the clinic during treatment periods 1 and 2, subjects received blinded study medication to be taken in the morning and evening of Days -3 and -2 of the next treatment period. End of study procedures was performed on Day 2 of treatment period 3 240 mg […]. for three days prior to niacin dosing plus 30 mg ASA per hour for eight hours, starting 4 hours prior to niacin dosing. 10 mg ASA per hour for 6 hours prior to niacin dosing. This regimen tested whether a lower dose of aspirin without an aspirin lead-in, and given entirely prior to niacin dosing, was sufficient to diminish flushing. No aspirin. This regimen acted as the negative control. Niaspan®, as well as blinded aspirin or placebo, for oral administration during the inpatient portion of each treatment period (Day -1 and Day 1) were dispensed by study pharmacist and administered to the subject by study personnel. Aspirin or placebo were administered in the evening on Day -1 and hourly on Day 1 for 6 hours before, concurrently with, and hourly for 3 hours after the Niaspan® dose. Episodes of flushing (including burning, itching, crawling sensation, pain and/or reddening of the skin, fever-like sensation) were recorded with start and end time maximum severity, and individual symptoms captured. A 100 mm visual analog scale (0=no flushing symptoms; 100=intolerable symptoms) was used to capture severity as reported by the subject. For each subject during each treatment period, the number of episodes of flushing, maximum severity of all episodes of flushing, and total duration of flushing, from start of the first episode to the end of the last episode, was calculated and summarized by treatment regimen. […] A total of 54 subjects were enrolled in the study. Forty-six subjects completed all three dosing periods and have contributed data to the evaluation of flushing parameters. A total of 51 subjects were exposed to Treatment A (240 mg ASA), 50 to B (60 mg ASA), and 50 to C (Placebo); these subjects comprise the population for evaluation of safety parameters.

[3] = Example 2 safety: monitoring of adverse events; assay type: in vivo, healthy volunteers
Method: Safety was assessed be assessing flushing episodes and by monitoring of other adverse events.
An adverse event (AE) is any unfavorable and unintended sign including an abnormal laboratory finding, symptom, or disease temporally associated with the use of a medical product, whether or not considered related to the study drug. The severity rating was scaled based on the following categories: • mild—awareness of a symptom, but easily tolerated; • moderate—discomfort enough to cause interference with usual activity; • severe—incapacitating with inability to work or perform usual activity.
A total of 54 subjects were enrolled in the study. Forty-six subjects completed all three dosing periods and have contributed data to the evaluation of flushing parameters. A total of 51 subjects were exposed to Treatment A (240 mg ASA), 50 to B (60 mg ASA), and 50 to C (Placebo); these subjects comprise the population for evaluation of safety parameters.

[4] = ASA and salicylic acid plasma pharmacokinetic profiles; assay type: in vivo; details: for aspirin plasma AUC / salicylic acid plasma AUC: in vivo; for Cmax: plasma, oral
[5] = system: flushing induced by nicotinic acid; details: guinea pigs; aspirin 50, 100 or 200 mg/kg; cited from earlier work
[6] = system: flushing induced by nicotinic acid; details: humans; total 975 mg aspirin (650 mg at 1 hr and 325 mg at 0.5 hr prior to high dose nicotinic acid); cited from earlier work
[7] = in vivo; cited from earlier work

aspirin plasma AUC ([4]; 160 mg): ~800 ngml^−1h
salicylic acid plasma AUC ([4]; 160 mg): ~11000 ngml^−1h
aspirin plasma AUC ([4]; 240 mg): ~1200 ngml^−1h
salicylic acid plasma AUC ([4]; 240 mg): ~16300 ngml^−1h
aspirin plasma AUC ([4]; 324 mg): ~1600 ngml^−1h
salicylic acid plasma AUC ([4]; 324 mg): ~22000 ngml^−1h
Structure (SMILES): CC(=O)Oc1ccccc1C(=O)O [ASA, acetyl salicylic acid]
reduction in mean flush intensity [1]: 53%
reduction in median flush intensity [1]: 77%
episodes of flushing per subject, mean ([2]; 60 mg ASA): 1.4
subjects who experienced a flushing response ([2]; 60 mg ASA (Treatment B)): 87%
incidence of itching, crawling, reddening and fever-like sensation of the skin ([2]; 60 mg ASA compared to placebo): occurred less frequently
times more likely to have fewer episodes of flushing ([2]; 60 mg ASA compared to placebo (p>0.10)): 1.3 times
total number of flushing episodes ([2]; 60 mg ASA): 64 episodes
maximum severity of flushing, mean ([2]; 60 mg ASA): 36.1 mm
maximum severity of flushing, median ([2]; 60 mg ASA): 35.0 mm
total cumulative duration of flushing, mean ([2]; 60 mg ASA): 101.8 min
total cumulative duration of flushing, median ([2]; 60 mg ASA): 84.0 min
episodes of flushing per subject, mean ([2]; 240 mg ASA): 1.1
subjects who experienced a flushing response ([2]; 240 mg ASA (Treatment A)): 74%
incidence of individual flushing symptoms ([2]; 240 mg ASA compared to 60 mg ASA or placebo): lower incidence of each flushing symptom
times more likely to have fewer episodes of flushing ([2]; 240 mg ASA compared to 60 mg ASA, multinomial logistic regression (p=0.05)): 1.7 times
times more likely to have fewer episodes of flushing ([2]; 240 mg ASA compared to placebo, multinomial logistic regression (p=0.01)): 2.1 times
total number of flushing episodes ([2]; 240 mg ASA): 52 episodes
maximum severity of flushing, mean ([2]; 240 mg ASA): 25.8 mm
maximum severity of flushing, median ([2]; 240 mg ASA): 20.0 mm
total cumulative duration of flushing, mean ([2]; 240 mg ASA): 67.1 min
total cumulative duration of flushing, median ([2]; 240 mg ASA): 44.5 min
adverse events involving gastrointestinal disorders ([3]; 60 mg ASA): 3 subjects
headache ([3]; 60 mg ASA): 5 subjects
Number of AEs ([3]; 60 mg ASA (n = 50)): 14
Subjects with AEs Leading to Withdrawal ([3]; 60 mg ASA (n = 50)): 0 (0.0%) subjects (%)
Subjects with Serious AEs ([3]; 60 mg ASA (n = 50)): 0 (0.0%) subjects (%)
Subjects with Severe AEs ([3]; 60 mg ASA (n = 50)): 0 (0.0%) subjects (%)
Subjects with any AE ([3]; 60 mg ASA (n = 50)): 10 (20.0%) subjects (%)
Subjects with any CTM-related AE ([3]; 60 mg ASA (n = 50)): 7 (14.0%) subjects (%)
adverse events involving gastrointestinal disorders ([3]; 240 mg ASA): 4 subjects
headache ([3]; 240 mg ASA): 4 subjects
Number of AEs ([3]; 240 mg ASA (n = 51)): 14
Subjects with AEs Leading to Withdrawal ([3]; 240 mg ASA (n = 51)): 0 (0.0%) subjects (%)
Subjects with Serious AEs ([3]; 240 mg ASA (n = 51)): 0 (0.0%) subjects (%)
Subjects with Severe AEs ([3]; 240 mg ASA (n = 51)): 0 (0.0%) subjects (%)
Subjects with any AE ([3]; 240 mg ASA (n = 51)): 12 (23.5%) subjects (%)
Subjects with any CTM-related AE ([3]; 240 mg ASA (n = 51)): 7 (13.7%) subjects (%)
flushing induced by nicotinic acid [5]: reduce the flushing induced by nicotinic acid
flushing induced by nicotinic acid [6]: reduce the flushing induced by nicotinic acid

Cmax ([4]; 160 mg, fast release rate): ~2.6 µg/mL
Cmax ([4]; 160 mg, intermediate release rate): ~1.7 µg/mL
Cmax ([4]; 160 mg, slow release rate): ~1.2 µg/mL
Cmax ([4]; 240 mg, fast release rate): ~3.7 µg/mL
Cmax ([4]; 240 mg, intermediate release rate): ~2.6 µg/mL
Cmax ([4]; 240 mg, slow release rate): ~1.8 µg/mL
Cmax ([4]; 324 mg, fast release rate): ~5 µg/mL
Cmax ([4]; 324 mg, intermediate release rate): ~3.5 µg/mL
Cmax ([4]; 324 mg, slow release rate): ~2.4 µg/mL
Structure (SMILES): O=C(O)c1ccccc1O [salicylic acid]

Structure (SMILES): O=C(O)c1cccnc1 [Niacin, nicotinic acid]
reduces Lp(a) levels [7]: about 40%

Reference: US20100015220A1, “NIACIN AND NSAID COMBINATION THERAPY” (priority 2008, published 2010)
